For 27 compounds, Ki and EC50 results are on record in patent US8518952B2, “6 substituted 2-heterocyclylamino pyrazine compounds as CHK-1 inhibitors” (Pfizer Inc., priority 2008, dated 2013).

The structures appear in SMILES notation. Counter-ions that a name gives are not always drawn.

The target in one test is T1, CHK1 (kinase domain) (Homo sapiens, UniProt O14757).
T1 construct: a solution containing 1 nM of CHK1 (kinase domain)
T1 sequence (O14757 9-265 limits assumed): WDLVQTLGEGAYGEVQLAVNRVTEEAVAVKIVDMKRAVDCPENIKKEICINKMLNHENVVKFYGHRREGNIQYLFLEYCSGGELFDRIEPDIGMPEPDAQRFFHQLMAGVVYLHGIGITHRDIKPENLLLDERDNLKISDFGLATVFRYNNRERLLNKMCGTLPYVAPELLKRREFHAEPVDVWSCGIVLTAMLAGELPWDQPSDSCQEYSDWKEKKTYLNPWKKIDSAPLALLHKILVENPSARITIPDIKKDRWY
The test is described as follows: CHK1 Ki determination, spectrophotometric coupled (pyruvate kinase/lactate dehydrogenase) assay. As to conditions: CHK-1 kinase domain; 150 uM ATP, 125 uM Syntide 2. It counts as biochemical. In outline:
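The CHK1 kinase domain was pre-incubated with compound for 15 min, and the reaction was started with 125 uM Syntide 2 and 150 uM ATP. ADP formation was coupled through pyruvate kinase/lactate dehydrogenase to NADH oxidation, read as the A340 decrease. Kiapp was fitted with a tight-binding equation that accounts for enzyme concentration and ATP Km; some entries are % inhibition.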

The test system of another test is Mia Paca-2 cells. The test is described as follows: Histone H3 (Ser10) phosphorylation ELISA, abrogation of camptothecin-induced G2 arrest (CHK-1 cellular assay). It counts as cell-based. As to conditions: Homo sapiens, camptothecin 8 hrs, then compound with nocodozole 16 hours. As to the method:
The Histone H3 phosphorylation ELISA assay detects cells entering mitosis and represents the primary in vitro cell-based assay used to measure the cellular potency of compounds in abrogating the G2 check point induced by DNA damage in HeLa cells or MiaPaCa cells. The candidate substances were assayed for potency in their ability to inhibit camptothecin-induced G2 arrest, as measured by an increase in Histone H3 phosphorylation on Ser10, a marker of entry into mitosis.
The PathScan Phospho-Histone H3 (Ser10) Sandwich ELISA kit was used (Cell Signaling, #7155) and the assay was performed according to manufacturer recommendations. Tissue culture plates were seeded with HeLa cells or MiaPaCa Cells and allowed to attach overnight. The cells were then treated with camptothecin to induce DNA damage for 8 hrs. Candidate substances or diluent were then added in the presence of nocodozole for 16 hours. Cells were then lysed with buffer from Assay Designs (#80-1114) supplemented with protease inhibitors and frozen overnight. The fresh whole cell lysates were then thawed and added to the ELISA plate with shaking for 3 hours. Between all subsequent steps plates were washed 4 times with PBST. Biotinylated phospho Histone H3 (ser10) detection antibody was added for 1 hour, followed by addition of horseradish peroxidase-linked streptavidin secondary antibody for 1 hour. Color development of the antibody was performed with addition of TMB substrate and incubation for 2 minutes on a plate shaker. Stop solution was added and plates were read with absorbance at 450 nm on a spectrophotometer. EC50 values were calculated by sigmoid curve fitting using a four-parameter analysis.
Under the “Ki” column, data entries in the format of “%” are percent inhibition data where no Ki data is available. Data entry under the “EC50” column with an * are data obtained using Mia Paca-2 cells rather than HeLa cells. Data is not available where noted as n/a.
For orientation: An ELISA detects its analyte on a solid surface through an enzyme-linked reagent.

[1] abbreviates: Mia Paca-2 cells (entries marked *).
Where [2] appears, read: MIA PaCa-2, Mia Paca-2 cells (entries marked *).

In the case of `CCOc1cc2ncn(-c3cncc(N[C@@H]4CCCNC4)n3)c2cn1` [Example 258, 6-(6-ethoxy-3H-imidazo[4,5-c]pyridin-3-yl)-N-[(3R)-piperidin-3-yl]pyrazin-2-amine], the Ki (in general, the equilibrium dissociation constant of an inhibitor or competing ligand from its target) at CHK1 (kinase domain) amounted to 4.38 nM. Moreover, the EC50 (commonly the concentration giving half of the maximal effect) with Mia Paca-2 cells (setting [1]) is 98.4 nM.
As for `C[C@H]1NCCC[C@H]1Nc1cncc(-c2cnn3ccncc23)n1` [Example 252, N-[(2R,3R)-2-methylpiperidin-3-yl]-6-(pyrazolo[1,5-a]pyrazin-3-yl)pyrazin-2-amine, acetate salt], on CHK1 (kinase domain), the affinity, expressed as Ki, was 69.3 nM. In addition, in the test with Mia Paca-2 cells (setting [1]), the EC50 was determined as 1110 nM.
With `CCOc1cc2c(cn1)ncn2-c1cncc(N[C@@H]2CCCNC2)n1` [Example 257, 6-(6-ethoxy-1H-imidazo[4,5-c]pyridin-1-yl)-N-[(3R)-piperidin-3-yl]pyrazin-2-amine], at CHK1 (kinase domain), the affinity, expressed as Ki, was 12.6 nM. Further, the midpoint of the response in the test on Mia Paca-2 cells (setting [1]), the EC50, lay at 166 nM.
In turn, `Cc1cn2c(-c3cncc(N[C@@H]4CCCN[C@@H]4C)n3)cnc2s1` [Example 161, 6-(2-methylimidazo[2,1-b][1,3]thiazol-5-yl)-N-[(2R,3R)-2-methylpiperidin-3-yl]pyrazin-2-amine] yielded a Ki on CHK1 (kinase domain) of 1.47 nM. Further, the EC50 with Mia Paca-2 cells (setting [1]) came out at 5.66 nM.
`N#Cc1ccn2c(-c3cncc(N[C@@H]4CCCNC4)n3)cnc2c1` [Example 24, 3-{6-[(3R)-piperidin-3-ylamino]pyrazin-2-yl}imidazo[1,2-a]pyridine-7-carbonitrile] returned a Ki on CHK1 (kinase domain) of 6.38 nM. In the test with Mia Paca-2 cells (setting [2]), this compound displayed an EC50 of 178 nM.
Consider `Nc1ccc2ncc(-c3cncc(N[C@@H]4CCCNC4)n3)n2c1` [Example 233, 3-{6-[(3R)-piperidin-3-ylamino]pyrazin-2-yl}imidazo[1,2-a]pyridin-6-amine], for which the affinity on CHK1 (kinase domain), expressed as Ki, was 3.4 nM. This compound also returned an EC50 in the test on Mia Paca-2 cells (setting [2]) of 75.5 nM.
For `CO[C@@H]1CNC[C@@H](Nc2cncc(-c3cnc4ccccn34)n2)C1` [Example 250, 6-(imidazo[1,2-a]pyridin-3-yl)-N-[(3S,5S)-5-methoxypiperidin-3-yl]pyrazin-2-amine], in that order: 48.8 nM and 1620 nM.
Consider `Fc1cccn2ncc(-c3cncc(N[C@@H]4CCCNC4)n3)c12` [Example 199, 6-(4-fluoropyrazolo[1,5-a]pyridin-3-yl)-N-[(3R)-piperidin-3-yl]pyrazin-2-amine], for which the Ki at CHK1 (kinase domain) was determined as 7.82 nM. The same compound had an EC50 in the test on Mia Paca-2 cells (setting [1]) of 106 nM.
For `CC1(COc2ccn3c(-c4cncc(N[C@@H]5CCCNC5)n4)cnc3c2)COC1` [Example 155, 6-{7-[(3-methyloxetan-3-yl)methoxy]imidazo[1,2-a]pyridin-3-yl}-N-[(3R)-piperidin-3-yl]pyrazin-2-amine], in that order: 1 nM and 46.1 nM.
With `COc1ccn2c(-c3cncc(N[C@H]4C5CCN(CC5)[C@H]4C)n3)cnc2c1` [Example 265, (2S,3S)-N-[6-(7-methoxyimidazo[1,2-a]pyridin-3-yl)pyrazin-2-yl]-2-methyl-1-azabicyclo[2.2.2]octan-3-amine], the Ki at CHK1 (kinase domain) turned out to be 5.37 nM. Moreover, the EC50 in the test with Mia Paca-2 cells (setting [1]) is 244 nM.
For `C[C@@H]1CNC[C@@H]1Nc1cncc(-c2cnc3ccc(Cl)cn23)n1` [Example 229, 6-(6-chloroimidazo[1,2-a]pyridin-3-yl)-N-[(3R,4R)-4-methylpyrrolidin-3-yl]pyrazin-2-amine], in that order: 4.4 nM and 9.75 nM.
For `COC[C@@H]1C[C@@H](Nc2cncc(-c3cnc4cc(C#N)ccn34)n2)CN1` [Example 188, 3-(6-{[(3R,5S)-5-(methoxymethyl)pyrrolidin-3-yl]amino}pyrazin-2-yl)imidazo[1,2-a]pyridine-7-carbonitrile], in that order: 57.8 nM and 663 nM.
Compound `C[C@@H]1C[C@@H](Nc2cncc(-c3cnc4ccccn34)n2)CN1` [Example 144, 6-imidazo[1,2-a]pyridin-3-yl-N-[(3R,5R)-5-methylpyrrolidin-3-yl]pyrazin-2-amine] came in with a Ki on CHK1 (kinase domain) of 3.18 nM. For the same compound, the EC50 with Mia Paca-2 cells (setting [1]) stood at 167 nM.
For the compound `COc1ccn2c(-c3cncc(N[C@@H]4CCCNC4)n3)cnc2c1` [Example 37, 6-(7-Methoxyimidazo[1,2-a]pyridin-3-yl)-N-[(3R)-piperidin-3-yl]pyrazin-2-amine], the affinity on CHK1 (kinase domain) corresponds to a Ki of 2.03 nM. Further, the EC50 in the test on Mia Paca-2 cells (setting [2]) is 21 nM.
At CHK1 (kinase domain), `C[C@H]1NCCC[C@H]1Nc1cncc(-c2cnc3ccc(Cl)cn23)n1` [Example 226, 6-(6-chloroimidazo[1,2-a]pyridin-3-yl)-N-[(2R,3R)-2-methylpiperidin-3-yl]pyrazin-2-amine] registered a Ki of 4.6 nM. This compound registered an EC50 in the test with Mia Paca-2 cells (setting [2]) of 7.17 nM.
For the compound `FC(F)(F)c1ccc2ncc(-c3cncc(NC4CNCCC4(F)F)n3)n2c1` (stereo not drawn) [Example 231, N-(4,4-difluoropiperidin-3-yl)-6-[6-(trifluoromethyl)imidazo[1,2-a]pyridin-3-yl]pyrazin-2-amine], the Ki on CHK1 (kinase domain) worked out at 28.6 nM. For the same compound, in the test on Mia Paca-2 cells (setting [2]), the EC50 was determined as 20000 nM.
For `O[C@H]1CNC[C@H](Nc2cncc(-c3cnc4ccccn34)n2)C1` [Example 203, (3R,5R)-5-{[6-(imidazo[1,2-a]pyridin-3-yl)pyrazin-2-yl]amino}piperidin-3-ol], in that order: 4.09 nM and 134 nM.
Regarding `COC[C@@H]1C[C@@H](Nc2cncc(-c3cnc4ccc(F)cn34)n2)CN1` [Example 266, 6-(6-fluoroimidazo[1,2-a]pyridin-3-yl)-N-[(3R,5S)-5-(methoxymethyl)pyrrolidin-3-yl]pyrazin-2-amine], the Ki on CHK1 (kinase domain) came to 78.7 nM. Besides, in the test on Mia Paca-2 cells (setting [1]), the response was half-maximal at 548 nM (EC50).
Turning to `COC[C@@H]1C[C@@H](Nc2cncc(-c3cnc4cc(Cl)ccn34)n2)CN1` [Example 244, 6-(7-chloroimidazo[1,2-a]pyridin-3-yl)-N-[(3R,5S)-5-(methoxymethyl)pyrrolidin-3-yl]pyrazin-2-amine], the affinity at CHK1 (kinase domain), expressed as Ki, was 15.9 nM. The compound further displayed a half-maximal effective concentration (EC50) in the test with Mia Paca-2 cells (setting [1]) of 60.3 nM.
For `OC[C@@H]1C[C@@H](Nc2cncc(-c3cnc4cc(Cl)ccn34)n2)CN1` [Example 245, [(2S,4R)-4-{[6-(7-chloroimidazo[1,2-a]pyridin-3-yl)pyrazin-2-yl]amino}pyrrolidin-2-yl]methanol], in that order: 4.72 nM and 85.9 nM.
On CHK1 (kinase domain), `C[C@@H]1CCNC[C@@H]1Nc1cncc(-c2cnc3cc(Cl)ccn23)n1` [Example 205, 6-(7-chloroimidazo[1,2-a]pyridin-3-yl)-N-[(3R,4R)-4-methylpiperidin-3-yl]pyrazin-2-amine] registered a Ki of 38.3 nM. In the test on Mia Paca-2 cells (setting [2]), this compound returned an EC50 of 55.2 nM.
At CHK1 (kinase domain), `c1cn2c(-c3cncc(N[C@@H]4CCCNC4)n3)cnc2cn1` [Example 4, 6-Imidazo[1,2-a]pyrazin-3-yl-N-[(3R)-piperidin-3-yl]pyrazin-2-amine] displayed a Ki of 7.74 nM. Moreover, in the test on Mia Paca-2 cells (setting [1]), it took 92.8 nM to reach a half-maximal effect (EC50).
On the same counts, the results for `Cc1ccn2c(-c3cncc(N[C@H]4CN[C@H](COC(C)C)C4)n3)cnc2c1` [Example 240, 6-(7-methylimidazo[1,2-a]pyridin-3-yl)-N-{(3R,5S)-5-[(propan-2-yloxy)methyl]pyrrolidin-3-yl}pyrazin-2-amine] are 61.6 nM and 171 nM.
On the same counts, the results for `Clc1cc2ncn(-c3cncc(N[C@@H]4CCCNC4)n3)c2cn1` [Example 254, 6-(6-chloro-3H-imidazo[4,5-c]pyridin-3-yl)-N-[(3R)-piperidin-3-yl]pyrazin-2-amine] are 28.3 nM and 542 nM.
The compound `CC(C)OC[C@@H]1C[C@@H](Nc2cncc(-c3cnc4ccccn34)n2)CN1` [Example 158, 6-(imidazo[1,2-a]pyridin-3-yl)-N-{(3R,5S)-5-[(propan-2-yloxy)methyl]pyrrolidin-3-yl}pyrazin-2-amine] returned a Ki at CHK1 (kinase domain) of 49.8 nM. In addition, the EC50 in the test with Mia Paca-2 cells (setting [1]) amounted to 129 nM.
On the same counts, the results for `CCOc1ccc2c(c1)ncn2-c1cncc(N[C@@H]2CCNC2)n1` [Example 217, 6-(5-ethoxy-1H-benzimidazol-1-yl)-N-[(3R)-pyrrolidin-3-yl]pyrazin-2-amine] are 6.99 nM and 36.4 nM.
On the same counts, the results for `CC(CO)(CO)COc1ccc2c(c1)ncn2-c1cncc(N[C@@H]2CCCNC2)n1` [Example 256, 2-methyl-2-{[(1-{6-[(3R)-piperidin-3-ylamino]pyrazin-2-yl}-1H-benzimidazol-5-yl)oxy]methyl}propane-1,3-diol] are 1.26 nM and 53.7 nM.
